Measurements: patent US12559474B2, “Triazine derivatives having virus replication inhibitory activity and pharmaceutical composition comprising the same” (priority 2021, dated 2026)
Like-named read-outs stand apart in the source and are kept apart here.

Experiments:
[1] = target: SARS-CoV-2 3CL protease (Severe acute respiratory syndrome coronavirus 2, UniProt P0DTD1); test: biochemical; conditions: 50% SARS-CoV-2 3CL protease inhibitory concentration, read-out: IC50
[2] = system: SARS-CoV-2; test: microbe, parasite or virus in culture; type: cell-based; conditions: Severe acute respiratory syndrome coronavirus 2, VeroE6/TMPRSS2, 72 h, 50% SARS-CoV-2 infected cell death inhibitory concentration, VeroE6/TMPRSS2 cells, 3 days culture

| Compound | IC50 ([1]; given as class symbols) | EC50 ([2]; class symbols) | IC50 ([1]; RapidFire MS) | EC50 ([2]; CellTiter-Glo 2.0) |
| --- | --- | --- | --- | --- |
| Cc1cncc(-n2c(=O)nc(Nc3cc4cn(C)nc4cc3Cl)n(Cc3cc(Cl)c(F)cn3)c2=O)c1 [II-0541] | < 100 nM | < 1000 nM |  |  |
| Cc1ccc(C#N)cc1Cn1c(Nc2cc3cn(C)nc3cc2Cl)nc(=O)n(-c2cncc(Cl)c2)c1=O [II-0543] |  |  | 2.8 nM | 87 nM |
| Cc1cncc(-n2c(=O)nc(Nc3cc4cn(C(C)C)nc4cc3Cl)n(Cc3ccc(F)c(C#N)c3)c2=O)c1 [II-0544] | < 100 nM | < 1000 nM |  |  |
| CNc1nc2cc(Cl)c(Nc3nc(=O)n(-c4cncc(C)c4)c(=O)n3Cc3cc(C#N)ccc3Cl)cc2o1 [II-0545] |  |  | 8.6 nM | 750 nM |
| CNc1nc2cc(Cl)c(Nc3nc(=O)n(-c4cncc(Cl)c4)c(=O)n3Cc3cc(C#N)ccc3C)cc2o1 [II-0546] | < 100 nM | < 1000 nM |  |  |
| CCn1cc2cc(Nc3nc(=O)n(Cc4ncn(C)n4)c(=O)n3Cc3cc(F)c(F)cc3F)c(Cl)cc2n1 [II-0548] |  |  | 14 nM | 533 nM |
| Cn1cnc(Cn2c(=O)nc(N3CCc4ccccc4CC3)n(Cc3cc(F)c(F)c(F)c3)c2=O)n1 [II-0550] |  |  | 1100 nM | 6420 nM |
| Cc1cncc(-n2c(=O)nc(Nc3cc4cn(C)nc4cc3Cl)n(Cc3cc(F)c(F)cc3OCC3CCC3)c2=O)c1 [II-0551] | < 100 nM | < 1000 nM |  |  |
| CC(=O)Nc1nc2cc(Cl)c(Nc3nc(=O)n(Cc4ncn(C)n4)c(=O)n3Cc3cc(Cl)c(F)cc3F)cc2s1 [II-0554] | < 100 nM | 1000 to 10000 nM |  |  |
| CC(=O)Nc1nc2cc(Cl)c(Nc3nc(=O)n(-c4cncc(C)c4)c(=O)n3Cc3ccc(F)c(C#N)c3)cc2s1 [II-0555] | < 100 nM | 1000 to 10000 nM |  |  |
| CNC(=O)Cn1cc2cc(Nc3nc(=O)n(-c4cncc5ccccc45)c(=O)n3Cc3cc(F)c(F)cc3F)c(Cl)cc2n1 [II-0556] | < 100 nM | 1000 to 10000 nM |  |  |
| CCn1cc2cc(Nc3nc(=O)n(-c4cncc(Cl)c4)c(=O)n3Cc3cc(C#N)c(F)cc3C)ccc2n1 [II-0559] |  |  | 6.4 nM | 246 nM |
| CC(=O)Nc1nc2cc(Cl)c(Nc3nc(=O)n(Cc4ncn(C)n4)c(=O)n3Cc3cc(F)c(F)cc3F)cc2s1 [II-0560] | < 100 nM | 1000 to 10000 nM |  |  |
| Cn1cnc(Cn2c(=O)nc(Nc3cc4cn(CC5(NC(=O)OC(C)(C)C)CC5)nc4cc3Cl)n(Cc3cc(Cl)c(F)cc3F)c2=O)n1 [II-0562] | < 100 nM | 1000 to 10000 nM |  |  |
| CC(=O)Nc1nc2cc(Cl)c(Nc3nc(=O)n(-c4cncc(C)c4)c(=O)n3Cc3cc(F)c(F)cc3F)cc2s1 [II-0563] | < 100 nM | 1000 to 10000 nM |  |  |
| Cc1cncc(-n2c(=O)nc(Nc3cc4cn(CC(F)(F)F)nc4cc3Cl)n(Cc3cc(F)c(F)c(F)c3)c2=O)c1 [II-0564] | < 100 nM | < 1000 nM |  |  |
| Cn1cnc(Cn2c(=O)nc(Nc3cc4cn(CC5(NC(=O)OC(C)(C)C)CC5)nc4cc3Cl)n(Cc3cc(F)c(F)c(Cl)c3)c2=O)n1 [II-0565] | < 100 nM | 1000 to 10000 nM |  |  |
| CCn1cc2cc(Nc3nc(=O)n(-c4cncc(Cl)c4)c(=O)n3Cc3ccc(F)c(C#N)c3)ccc2n1 [II-0566] |  |  | 27 nM | 898 nM |
| Cc1cncc(-n2c(=O)nc(Nc3ccc4nn(CC(F)(F)F)cc4c3)n(Cc3ccc(F)c(C#N)c3)c2=O)c1 [II-0567] |  |  | 8.8 nM | 650 nM |
| Cc1cncc(-n2c(=O)nc(Nc3cc4cn(CC(F)F)nc4cc3Cl)n(Cc3cc(F)c(F)c(C#N)c3)c2=O)c1 [II-0568] |  |  | 2.1 nM | 132 nM |
| Cn1cnc(Cn2c(=O)nc(Nc3cc4cn(CC(F)F)nc4cc3Cl)n(Cc3cc(Cl)c(F)cc3F)c2=O)n1 [II-0569] |  |  | 4.2 nM | 419 nM |
| Cc1cncc(-n2c(=O)nc(Nc3ccc4nn(CC(F)F)cc4c3)n(Cc3cc(C#N)ccc3Cl)c2=O)c1 [II-0570] |  |  | 4.4 nM | 600 nM |
| Cc1cc(F)c(C#N)cc1Cn1c(Nc2ccc3nn(C)cc3c2)nc(=O)n(-c2cncc(Cl)c2)c1=O [II-0571] |  |  | 5.4 nM | 190 nM |
| Cn1cnc(Cn2c(=O)nc(Nc3cc4cn(CC(F)F)nc4cc3Cl)n(Cc3cc(F)c(F)c(Cl)c3)c2=O)n1 [II-0572] |  |  | 5.6 nM | 925 nM |
| Cc1cncc(-n2c(=O)nc(Nc3ccc4nn(C)cc4c3)n(Cc3cc(F)c(F)c(C#N)c3)c2=O)c1 [II-0573] |  |  | 6.1 nM | 340 nM |

| Compound | IC50 ([1]; given as class symbols) | EC50 ([2]; class symbols) | IC50 ([1]; RapidFire MS) | EC50 ([2]; CellTiter-Glo 2.0) |
| --- | --- | --- | --- | --- |
| Cc1cncc(-n2c(=O)nc(Nc3cc4cn(CC(F)F)nc4cc3Cl)n(Cc3cc(F)c(F)cc3F)c2=O)c1 [II-0574] |  |  | 9.2 nM | 200 nM |
| Cn1cc2cc(Nc3nc(=O)n(-c4cncc(Cl)c4)c(=O)n3Cc3cc(Cl)c(F)cc3F)ccc2n1 [II-0576] |  |  | 17 nM | 530 nM |
| Cc1cncc(-n2c(=O)nc(Nc3cc4cn(CC(F)F)nc4cc3Cl)n(Cc3cc(C#N)ccc3C)c2=O)c1 [II-0577] |  |  | 1.1 nM | 85 nM |
| COc1cncc(-n2c(=O)nc(Nc3cc4cn(C)nc4cc3Cl)n(Cc3ccc(F)c(C#N)c3)c2=O)c1 [II-0578] | < 100 nM | 1000 to 10000 nM |  |  |
| Cc1cncc(-n2c(=O)nc(Nc3cc4cn(C)nc4cc3Cl)n(Cc3cc(C#N)ccc3Cl)c2=O)c1 [II-0579] |  |  | 2.1 nM | 67 nM |
| Cc1cncc(-n2c(=O)nc(Nc3cc4cn(C)nc4cc3Cl)n(Cc3cc(C#N)ccc3[N+](=O)[O-])c2=O)c1 [II-0580] | < 100 nM | < 1000 nM |  |  |
| Cc1cncc(-n2c(=O)nc(Nc3cc4cn(C)nc4cc3Cl)n(Cc3cc(C#N)c(F)cc3CF)c2=O)c1 [II-0581] | < 100 nM | < 1000 nM |  |  |
| Cc1cncc(-n2c(=O)nc(Nc3cc4cn(C)nc4cc3Cl)n(Cc3cc(Cl)ccc3Cl)c2=O)c1 [II-0582] | < 100 nM | < 1000 nM |  |  |
| Cc1cncc(-n2c(=O)nc(Nc3cc4cn(C)nc4cc3Cl)n(Cc3cc(C#N)c(F)cc3C(F)F)c2=O)c1 [II-0583] | < 100 nM | < 1000 nM |  |  |
| Cn1cnc(Cn2c(=O)nc(Nc3cc4cn(C)nc4cc3Cl)n(Cc3cc(Cl)c(F)c(Cl)c3)c2=O)n1 [II-0584] |  |  | 4.8 nM | 750 nM |
| Cc1cncc(-n2c(=O)nc(Nc3cc4cn(C)nc4cc3Cl)n(Cc3cc(C#N)ccc3N)c2=O)c1 [II-0585] | < 100 nM | 1000 to 10000 nM |  |  |
| Cc1cncc(-n2c(=O)nc(Nc3cc4cn(CC(F)F)nc4cc3Cl)n(Cc3cc(Cl)c(F)cn3)c2=O)c1 [II-0586] | < 100 nM | < 1000 nM |  |  |
| C=Cc1cc(Cn2c(Nc3cc4cn(C)nc4cc3Cl)nc(=O)n(-c3cncc(C)c3)c2=O)ccc1F [II-0587] | < 100 nM | < 1000 nM |  |  |
| Cc1cncc(-n2c(=O)nc(Nc3cc4cn(C)nc4cc3Cl)n(Cc3cc(Cl)c(F)c(Cl)c3)c2=O)c1 [II-0588] | < 100 nM | < 1000 nM |  |  |
| CNc1nc2cc(Cl)c(Nc3nc(=O)n(-c4cncc(C)c4)c(=O)n3Cc3cc(Cl)c(F)cn3)cc2s1 [II-0589] | < 100 nM | 1000 to 10000 nM |  |  |
| C#Cc1cc(Cn2c(Nc3cc4cn(C)nc4cc3Cl)nc(=O)n(-c3cncc(C)c3)c2=O)ccc1F [II-0590] | < 100 nM | < 1000 nM |  |  |
| Cn1cnc(Cn2c(=O)nc(Nc3cc4cn(C)nc4cc3Cl)n(Cc3cc(Cl)ccc3Cl)c2=O)n1 [II-0591] | < 100 nM | < 1000 nM |  |  |
| Cn1cc2cc(Nc3nc(=O)n(-c4cncc(Cl)c4)c(=O)n3Cc3cc(Cl)c(F)cn3)c(Cl)cc2n1 [II-0592] | < 100 nM | 1000 to 10000 nM |  |  |
| COc1cc(Cn2c(Nc3cc4cn(C)nc4cc3Cl)nc(=O)n(-c3cncc(C)c3)c2=O)ccc1F [II-0593] | < 100 nM | 1000 to 10000 nM |  |  |
| Cc1cncc(-n2c(=O)nc(Nc3cc4cn(C)nc4cc3Cl)n(Cc3ccc(F)c(C4CC4)c3)c2=O)c1 [II-0595] |  |  | 530 nM | 8220 nM |
| Cc1cncc(-n2c(=O)nc(Nc3cc4cn(C)nc4cc3Cl)n(Cc3cc(C#N)ccc3C)c2=O)c1 [II-0596] |  |  | 1.6 nM | 62 nM |
| Cc1cncc(-n2c(=O)nc(Nc3cc4cn(C)nc4cc3Cl)n(Cc3ccc(F)c(Br)c3)c2=O)c1 [II-0597] | < 100 nM | < 1000 nM |  |  |
| CNc1cncc(-n2c(=O)nc(Nc3cc4cn(C)nc4cc3Cl)n(Cc3cc(C#N)c(F)cc3Cl)c2=O)c1 [II-0598] | < 100 nM | < 1000 nM |  |  |
| CNc1cncc(-n2c(=O)nc(Nc3cc4cn(C)nc4cc3Cl)n(Cc3cc(Cl)c(F)cc3F)c2=O)c1 [II-0599] | < 100 nM | < 1000 nM |  |  |
| CNc1cncc(-n2c(=O)nc(Nc3cc4cn(C)nc4cc3Cl)n(Cc3cc(F)c(F)cc3F)c2=O)c1 [II-0600] | < 100 nM | < 1000 nM |  |  |
